Several values for one entry are separate records, joined by “and”; a condition that tells them apart may be missing. Equal values may be shown once.
Columns and labels:
[1] = Biodistribution in mice at 24 hours, gamma well counting; format: in vivo, Balb-C mice
[2] = test system: transplanted sarcoma; assay: Tumor imaging, mice with transplanted sarcoma, gamma well counting; format: in vivo; set-up: Fat activity, gamma well counting / Muscle activity, gamma well counting: unit not given here
Text: All images for the in vivo studies were obtained on a GE 500 maxicamera using a LEAP collimator with a 20% window about the 140 keV energy peak of technetium, and a medium energy collimator with a 20% window about the 174 keV and 247 keV energy peaks of Indium. A 256×256 matrix with a dedicated pinnacle computer system was used to collect and analyze the data.

[3] = Gastrointestinal absorption after oral administration, modified Schillings test; format: in vivo, mice; set-up: Kidney activity, gamma well counting / Liver activity, gamma well counting / Pancreas activity, gamma well counting / Heart activity, gamma well counting / Spleen activity, gamma well counting: unit not given here
Description: B. Gastrointestinal Absorption: Methylcobalamin-b-(4-aminobutyl)-DTPA and DTPA alone were labeled as described above, with the exception that the 3 mCi Indium/300 μg/100 μl normal saline solutions were not diluted. […] The mice were sacrificed at 24 hrs, dissected, and studied as described above.
A modified Schillings test was performed on two mice. Specifically, each mouse received via subcutaneous and intraperitoneal administration, a 1000 μg loading dose of non-labeled methylcobalamin-b-(4-aminobutyl)amide-DTPA analogue. At 24 hrs, the mice were fed 2-3 drops of Indium-labeled methylcobalamin-b-(4-aminobutyl)amide-DTPA-complex. Urine and feces were collected from the three groups of mice after oral administration. The mice were sacrificed at 24 hours after ingestion of tracer and images and biodistribution data were obtained at that time.

[4] = 500 μCi intraperitoneal, 24 hours, mice 1-6
[5] = 500 μCi subcutaneously, mice 7-12
[6] = 500 μCi intraperitoneal, 24 hours, tumor mice 19-24
[7] = approximately 100 μCi tailvein injection, tumor mice 25-30
[8] = approximately 30 μCi orally, 24 hrs, mice 13-18
[9] = approximately 30 μCi orally, 24 hrs, mice 13-18, BKG = background

SMILES | Fat activity, gamma well counting [1, 4] | Heart activity, gamma well counting [1, 4] | Liver activity, gamma well counting [1, 4] | Lung activity, gamma well counting [1, 4] | Pancreas activity, gamma well counting [1, 4] | Heart activity, gamma well counting [1, 5] | Kidney activity, gamma well counting [1, 5] | Liver activity, gamma well counting [1, 5] | Lung activity, gamma well counting [1, 5] | Pancreas activity, gamma well counting [1, 5] | Heart activity, gamma well counting [2, 6] | Kidney activity, gamma well counting [2, 6] | Pancreas activity, gamma well counting [2, 6] | Tumor activity, gamma well counting [2, 6] | Heart activity, gamma well counting [2, 7] | Lung activity, gamma well counting [2, 7] | Kidney activity, gamma well counting [3, 8] | Liver activity, gamma well counting [3, 8] | Pancreas activity, gamma well counting [3, 8] | Fat activity, gamma well counting [3, 9] | further results
O=C([O-])CN(CCN(CC(=O)[O-])CC(=O)[O-])CCN(CC(=O)[O-])CC(=O)[O-].[111In+3].[H+].[H+] [DTPA-^111In] | 12.6 and 19.5 and 18.8 | 10.3 and 6.9 and 12.5 | 56.9 and 41.5 and 66.1 | 6.2 and 6.0 and 10.5 | 13.4 and 13.0 and 14.1 | 5.6 and 5.0 and 4.8 | 119.4 and 117.3 and 110.1 | 24.0 and 25.5 and 23.2 | 5.4 and 5.3 and 5.0 | 6.0 and 6.7 and 5.9 | 5.0 and 8.0 and 9.7 | 116.5 and 180.7 and 231.2 | 7.1 and 11.3 and 13.9 | 52.8 and 69.3 and 73.1 | 0.94 and 0.61 and 0.85 | 1.7 and 0.87 and 0.93 | 0.64 and 0.54 and 0.59 | 0.28 and 0.21 and 0.30 | 0.93 and 0.96 and 0.61 | <BKG | Muscle activity, gamma well counting [1, 4]: 5.4 and 5.6 and 5.0; Spleen activity, gamma well counting [1, 5]: 19.5 and 19.0 and 18.1; activity per organ or tissue sample, times less when compared to the methyl and adenosylcobalamin analogs ([1]; mouse, in vivo): 5-12 times; Fat activity, gamma well counting [2, 6]: 13.7 and 17.9 and 19.2; Muscle activity, gamma well counting [2, 6]: 7.2 and 6.4 and 6.8; Fat activity, gamma well counting [2, 7]: 0.93 and 0.75 and 0.79; Kidney activity, gamma well counting [2, 7]: 14.0 and 9.9 and 10.2; Liver activity, gamma well counting [2, 7]: 1.6 and 1.3 and 1.4; Spleen activity, gamma well counting [2, 7]: 1.9 and 1.4 and 1.6; Tumor activity, gamma well counting [2, 7]: 5.0 and 2.8 and 3.4; concentration within the transplanted tumors, times less than that of adenosylcobalamin-DTPA-^111In ([2]; mouse, in vivo): 10-20 times; Spleen activity, gamma well counting [3, 8]: 0.62 and 0.67 and 0.48; Heart activity, gamma well counting [3, 9]: <BKG; Lung activity, gamma well counting [3, 9]: <BKG; Muscle activity, gamma well counting [3, 9]: <BKG; activity in the heart, lungs, muscle, or fat tissue samples ([3]; oral): No activity was detected; radioactivity in urine and stool ([3]; oral): detected in urine and stool by two hours; absorption from the gastrointestinal tract ([3]; oral administration, mice): also absorbed from the gastrointestinal tract, but to a lesser degree
CC1=C2N=C(C=C3N=C(C(C)=C4[N-]C(C(CC(N)=O)C4(C)CCC(=O)NCC(C)OP(=O)([O-])OC4C(CO)OC(n5cnc6cc(C)c(C)cc65)C4O)C4(C)N=C1C(CCC(=O)NCCCCNC(=O)CN(CCN(CCN(CC(=O)[O-])CC(=O)[O-])CC(=O)[O-])CC(=O)[O-])C4(C)CC(N)=O)C(CCC(N)=O)C3(C)C)C(CCC(N)=O)C2(C)CC(N)=O.[111In+3].[CH2-]C1OC(n2cnc3c(N)ncnc32)C(O)C1O.[Co+3] (stereo not drawn) [adenosylcobalamin-b-(4-aminobutyl)-amide-DTPA-^111In] | 101.4 and 147.3 and 102.8 | 134.7 and 189.4 and 171.2 | 943.3 and 823.4 and 768.6 | 130.9 and 180.1 and 113.1 | 304.2 and 319.9 and 310.3 | 35.0 and 29.8 and 31.3 | 621.4 and 700.5 and 601.7 | 126.4 and 111.7 and 115.8 | 38.4 and 51.2 and 40.6 | 40.0 and 39.3 and 41.2 | 165.0 and 134.8 and 157.8 | 3886.9 and 3115.6 and 3592.8 | 445.0 and 242.7 and 439.0 | 954.7 and 1426.0 and 1183.1 |  |  |  |  |  |  | Kidney activity, gamma well counting [1, 4]: 3717.5 and 3299.5 and 3462.7; Spleen activity, gamma well counting [1, 4]: 433.1 and 405.3 and 366.8; Liver activity, gamma well counting [2, 6]: 691.0 and 464.8 and 675.0; Lung activity, gamma well counting [2, 6]: 318.8 and 230.0 and 335.2; Spleen activity, gamma well counting [2, 6]: 576.3 and 309.5 and 478.3; tumor activity relative to heart, lungs, fat, and muscle ([2]; IP and IV routes, 24 hours): 4-12 times; tumor activity relative to liver, spleen, and pancreas ([2]; IP and IV routes, 24 hours): two to four times greater activity; uptake within the transplanted sarcoma ([2]; at 24 hours, visually and by gamma well counting): significant amount
CC1=C2N=C(C=C3N=C(C(C)=C4[N-]C(C(CC(N)=O)C4(C)CCC(=O)NCC(C)OP(=O)([O-])OC4C(CO)OC(n5cnc6cc(C)c(C)cc65)C4O)C4(C)N=C1C(CCC(=O)NCCCCNC(=O)CN(CCN(CCN(CC(=O)[O-])CC(=O)[O-])CC(=O)[O-])CC(=O)[O-])C4(C)CC(N)=O)C(CCC(N)=O)C3(C)C)C(CCC(N)=O)C2(C)CC(N)=O.[111In+3].[CH3-].[Co+3] (stereo not drawn) [methylcobalamin-b-(4-aminobutyl)-amide-DTPA-^111In] |  |  |  |  |  |  |  |  |  |  |  |  |  |  | 21.7 and 11.4 and 16.9 | 34.4 and 19.9 and 21.3 | 4.3 and 4.1 and 3.1 | 0.82 and 0.80 and 0.73 | 0.75 and 0.76 and 1.1 | <BKG | Muscle activity, gamma well counting [2, 7]: 23.5 and 15.5 and 14.5; Pancreas activity, gamma well counting [2, 7]: 38.4 and 21.3 and 30.3; Heart activity, gamma well counting [3, 9]: 0.54 and 0.50; Muscle activity, gamma well counting [3, 9]: <BKG; activity in the urine by gamma well counting ([3]; oral, mice not flushed with non-labeled methylcobalamin-b-(4-aminobutyl)amide-DTPA): no discernable activity was detected; radioactivity in urine ([3]; oral, mice that underwent the modified Schillings test (flushed)): detectable radioactivity within their urine at one hour
